# Measurements published in patent publication US20180043017A1, “PHARMACEUTICAL COMPOSITIONS COMPRISING 0.5 MG DOSE OF SYNTHETIC HUMAN PEPTIDES FOR TREATING SYSTEMIC LUPUS ERYTHEMATOSUS” (XTL Biopharmaceuticals Ltd., priority 2016, published 2018).
# Where two headings read alike, the source gives them in different places.
# What was measured:
# [1] = system: mice afflicted with spontaneous or experimental SLE; conditions: mouse, in vivo; cited from earlier work
# [2] = system: peripheral blood lymphocytes (PBL) of SLE patients; conditions: cited from earlier work
# [3] = system: SLE patients; assay: PRELUDE phase 2 study, three doses of subcutaneously injected Edratide, 26 weeks; conditions: for AE incidence: placebo 79.3%; for early withdrawal due to AE: placebo 2.3%
# Method: (§1) The PRELUDE Study was a phase 2, multinational, multicenter, randomized, double-blind, placebo-controlled, multiple-dose, parallel group study to assess the efficacy, tolerability and safety of three doses of subcutaneously injected Edratide in SLE patients.
# (§2) The total study treatment duration was 26 weeks. Scheduled visits were performed at screening, baseline and at weeks 4, 8, 12, 16, 20, 24, and 26 (termination). […] Non-compliance with the tapering down scheme was not regarded as a protocol violation. During the entire course of the study it was allowed to increase the steroid prednisolone dose to up to 60 mg. Use of intravascular/intramuscular steroid was considered a protocol violation. […] Edratide and CAPTISOL® pharmacokinetic (PK) profiles were characterized in a small group of patients. PK assessment of CAPTISOL® for all four treatment groups was conducted following the first dose and Weeks 12 and 26 doses. Disease and drug related immunology parameters were tested at baseline and at several time points thereafter.
# (§3) The co-primary end-points presented in their hierarchical order below were: • Change from baseline to last observed value (LOV) in SLEDAI 2K score (Landmark Analysis.) • Adjusted Mean SLEDAI 2K (AMS). AMS represents the time weighted average of disease activity as measured by SLEDAI 2K score [area under the curve (AUC) of SLEDAI 2K].
# (§4) Secondary End-Points: • BILAG proportion of responders. BILAG responders were defined as: • a. Non Responder (NR)—same BILAG score in Last Observed Value (LOV) as in baseline in all systems or new A or B in at least one system compared to baseline (other systems may improve or deteriorate). • b. […] Change from baseline to LOV • SF-36 (QoL) Physical component Score—Change from Baseline to LOV • Time Weighted Average (TWA) on cumulative steroids dose with p.o. administration.
# (§5) Exploratory End-Points: • Primary end-point sensitivity analysis to steroid increase (excluding the observations following steroid increase) • Proportions of Zero SLEDAI Score at LOV • Time to Zero SLEDAI Score • BILAG Total Score—Change from Baseline to LOV
# (§6) Flares Analysis: • Time to medicinal flare • Time to new BILAG A or at least two new B's • Time to new BILAG A or at least two new B's (excluding persistent activity) • Steroid dose (PO)—Change from baseline to LOV • PGA—Physician's Global Assessment
# [4] = system: SLE patients; conditions: in vivo
# Method: as §1, §2, §3, §4, §5, §6
# [5] = system: SLE patients; conditions: cited from earlier work
# [6] = system: SLE patients; conditions: cited from earlier work; for incidence of adverse events (AEs): placebo 75%
compound,measurement,setting,value
"CC[C@H](C)[C@H](NC(=O)[C@H](Cc1c[nH]c2ccccc12)NC(=O)[C@H](CO)NC(=O)[C@H](Cc1c[nH]c2ccccc12)NC(=O)[C@H](Cc1ccc(O)cc1)NC(=O)[C@H](Cc1ccc(O)cc1)NC(=O)CN)C(=O)C[C@@H](CCCNC(=N)N)C(=O)N[C@@H](CCC(N)=O)C(=O)N1CCC[C@H]1C(=O)N1CCC[C@H]1C(=O)NCC(=O)N[C@@H](CCCCN)C(=O)NCC(=O)N[C@@H](CCC(=O)O)C(=O)N[C@@H](CCC(=O)O)C(=O)N[C@@H](Cc1c[nH]c2ccccc12)C(=O)N[C@H](C(=O)NCC(=O)O)[C@@H](C)CC (stereo in doubt) [Edratide, H-Gly-Tyr-Tyr-Trp-Ser-Trp-Ile-Arg-Gln-Pro-Pro-Gly-Lys-Gly-Glu-Glu-Trp-Ile-Gly-OH]",disease manifestations of mice afflicted with spontaneous or experimental SLE,[1],ameliorate disease manifestations
same,proliferative response of PBL of SLE patients to the human anti-DNA 16/6Id mAB,[2],inhibit the proliferative response
same,"Serious Adverse Events (SAEs), number of subjects",[3]; 0.5 mg,6 subjects
same,change in SF-36 mental score compared to placebo,[3]; 0.5 mg,slightly better
same,change in SF-36 physical score compared to placebo,[3]; 0.5 mg,opposite trend
same,"early withdrawal due to AE, number of subjects",[3]; 0.5 mg,5 subjects
same,"post hoc analysis on BILAG responders, system improved",[3]; 0.5 mg,improvement mainly in the cutaneous system
same,subjects who prematurely terminated the study,[3]; 0.5 mg (84 randomized),Thirteen
same,deaths during the study,[3]; 0.5 mg group,One
same,relation of death to study drug as classified by investigators,"[3]; 0.5 mg group, most probably septic shock",not related to the study drug
same,AE incidence,[3]; 0.5 mg weekly,82.1%
same,BILAG substantial responders,"[3]; 0.5 mg, ITT, LOV vs baseline, placebo 22%, p=0.03",36%
same,subjects with medicinal flare,"[3]; 0.5 mg, ITT, post hoc, placebo 29%, p=0.039",17%
same,BILAG substantial response odds ratio (OR) vs placebo,"[3]; 0.5 mg, ITT, p=0.03",2.09
same,medicinal flare OR vs placebo,"[3]; 0.5 mg, ITT, p=0.039",0.43
same,BILAG substantial responders,"[3]; 0.5 mg, no steroids at baseline, placebo 13%, p=0.05",54%
same,early withdrawal due to AE,[3]; 0.5 mg,6.0%
same,Serious Adverse Events (SAEs) incidence,"[3]; 0.5 mg, placebo 10.3%",7.1%
same,"Serious Adverse Events (SAEs), number of subjects",[3]; 1.0 mg,10 subjects
same,"early withdrawal due to AE, number of subjects",[3]; 1.0 mg,3 subjects
same,subjects who prematurely terminated the study,[3]; 1.0 mg (87 randomized),13 subjects
same,subjects with zoster,[3]; 1 mg group,2 subjects
same,AE incidence,[3]; 1 mg weekly,77%
same,proportion of BILAG substantial responders compared to placebo,"[3]; 1 mg, lesser extent than 0.5 mg",trend toward increasing the proportion of substantial responders
same,BILAG substantial response OR vs placebo,"[3]; 1 mg, p=0.07 without correction for multiple comparison",1.85
same,early withdrawal due to AE,[3]; 1.0 mg,3.4%
same,Serious Adverse Events (SAEs) incidence,"[3]; 1.0 mg, placebo 10.3%",11.5%
same,"Serious Adverse Events (SAEs), number of subjects",[3]; 2.5 mg,8 subjects
same,"early withdrawal due to AE, number of subjects",[3]; 2.5 mg,3 subjects
same,subjects who prematurely terminated the study,[3]; 2.5 mg (82 randomized),11 subjects
same,AE incidence,[3]; 2.5 mg weekly,75.6%
same,early withdrawal due to AE,[3]; 2.5 mg,3.7%
same,Serious Adverse Events (SAEs) incidence,"[3]; 2.5 mg, placebo 10.3%",9.8%
same,cSRI positive responders,"[3]; ITT (FIG. 4), placebo 20%, p=0.058",34%
same,safety signal from AEs analysis and additional safety data,"[3]; all Edratide doses, no clear dose response",no significant safety signal
same,"co-primary endpoints (change in SLEDAI 2K score baseline to LOV; AMS), active groups vs placebo",[3]; any of the active treatment groups,no differences
same,"SF-36 mental or physical scores, differences between treatment groups",[3]; in vivo,No clinically or statistically significant differences
same,"cumulative change in steroid dose throughout the study, differences between treatment groups",[3]; in vivo,No clinically or statistically significant differences
same,"early terminations due to AEs, Edratide vs placebo",[3]; in vivo,more often
same,SAE incidence,"[3]; pooled Edratide group, placebo 10.3%",9.5%
same,BILAG substantial response OR vs placebo,"[3]; prednisolone dose <20 mg at baseline, p=0.007",2.75
same,BILAG substantial responders,"[3]; prednisolone dose <20 mg at baseline, placebo 19%, p=0.007 (FIG. 2B)",40%
same,mean reduction from baseline SLEDAI-2K score,[3]; regardless of treatment,about 35%
same,BILAG substantial responders,"[3]; seropositive patients (anti-DNA>30 IU), placebo 26% (FIG. 2C)",46%
same,BILAG non-responders,"[3]; seropositive patients (anti-DNA>30 IU), placebo 68%, p=0.05",42%
same,subjects with herpes simplex,[4],8 subjects
same,subjects with herpes viral infections,[4],11 subjects
same,subjects with herpes zoster,[4],3 subjects
same,subjects with increase in total SLEDAI-2K score of 0-3 points,[5]; 0.5 mg group,Two
same,subjects with increase in total SLEDAI-2K score of 0-3 points,[5]; 2.5 mg group,2 subjects
same,overall incidence of AEs between all treatment groups,"[5]; 0.5, 1 or 2.5 mg sc twice weekly for 4 weeks vs placebo",no prominent difference
same,severity of injection site reactions,"[5]; all injection site reactions, majority resolved on day of injection",mild
same,subjects reporting AEs during 8-week follow-up period (off-drug),[5]; all treatment groups,Approximately 50%
same,"adjusted mean SLEDAI (AMS) score change, baseline to termination visit","[5]; all treatment groups, decreased (improved)",−0.1 to −1.5 points
same,trend in mean group total BILAG score,[5]; any treatment group,No trend
same,SAE throughout the study,[5]; in vivo,No SAE was reported
same,"incidence of AEs during 8-week follow-up period (off-drug), active groups vs placebo",[5]; in vivo,no prominent difference
same,increase of total SLEDAI-2K score in one subject,"[6]; 0.5 mg group, Week 4 after dosing, not confirmed as lupus flare",2 to 10 points
same,change of total SLEDAI-2K score,"[6]; any subject during the study, except one subject in the 0.5 mg group",No noteworthy change
same,incidence of adverse events (AEs),"[6]; single sc injection 0.5 mg, % of the subjects",33%
same,incidence of adverse events (AEs),[6]; single sc injection 1 mg,67%
same,incidence of adverse events (AEs),[6]; single sc injection 2.5 mg,80%
